Data published in patent US7439051B2, “Process for utilizing epitopes recognized by natural antibodies” (Mirus Bio Corporation, priority 1999, dated 2008).

T1: CRP (Rattus norvegicus, UniProt P48199)
T1 construct: from tissue; host or cells: rat serum
T1 sequence (P48199 20-230): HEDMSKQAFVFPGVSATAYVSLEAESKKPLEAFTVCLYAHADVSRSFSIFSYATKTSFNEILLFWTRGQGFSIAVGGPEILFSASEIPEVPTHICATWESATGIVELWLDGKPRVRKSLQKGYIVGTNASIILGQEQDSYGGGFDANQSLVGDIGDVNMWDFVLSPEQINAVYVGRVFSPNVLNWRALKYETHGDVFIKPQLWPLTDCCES

B1: Plasminogen: plasminogen bound by Lysine-Sepharose, eluted by ε-aminocaproic acid (protein, UniProt P00747 20-810, looked up)
Plasminogen: EPLDDYVNTQGASLFSVTKKQLGAGSIEECAAKCEEDEEFTCRAFQYHSKEQQCVIMAENRKSSIIIRMRDVVLFEKKVYLSECKTGNGKNYRGTMSKTKNGITCQKWSSTSPHRPRFSPATHPSEGLEENYCRNPDNDPQGPWCYTTDPEKRYDYCDILECEEECMHCSGENYDGKISKTMSGLECQAWDSQSPHAHGYIPSKFPNKNLKKNYCRNPDRELRPWCFTTDPNKRWELCDIPRCTTPPPSSGPTYQCLKGTGENYRGNVAVTVSGHTCQHWSAQTPHTHNRTPENFPCKNLDENYCRNPDGKRAPWCHTTNSQVRWEYCKIPSCDSSPVSTEQLAPTAPPELTPVVQDCYHGDGQSYRGTSSTTTTGKKCQSWSSMTPHRHQKTPENYPNAGLTMNYCRNPDADKGPWCFTTDPSVRWEYCNLKKCSGTEASVVAPPPVVLLPDVETPSEEDCMFGNGKGYRGKRATTVTGTPCQDWAAQEPHRHSIFTPETNPRAGLEKNYCRNPDGDVGGPWCYTTNPRKLYDYCDVPQCAAPSFDCGKPQVEPKKCPGRVVGGCVAHPHSWPWQVSLRTRFGMHFCGGTLISPEWVLTAAHCLEKSPRPSSYKVILGAHQEVNLEPHVQEIEVSRLFLEPTRKDIALLKLSSPAVITDKVIPACLPSPNYVVADRTECFITGWGETQGTFGAGLLKEAQLPVIENKVCNRYEFLNGRVQSTELCAGHLAGGTDSCQGDSGGPLVCFEKDKYILQGVTSWGLGCARPNKPGVYVRVSRFVTWIEGVMRNN

Columns and labels:
CRP = target: T1, CRP; assay: Reduction by PC of K+/R+ phage protection in vitro; format: biochemical
Excerpt: PC reduced the protection of K+/R+ phage both in vivo and in vitro, thereby confirming the role of CRP as a K+/R+ protection agent (FIG. 1B and Table 2K, respectively). […] Direct interaction between CRP and K+/R+ phage was shown with the phage immobilized on Affi-Gel 15. Immobilized K+/R+ phage, but not K−/R− phage, bound a substantial amount of serum protein that was eluted from the column by ε-ACA (FIG. 2C). […] The identification of this protein as CRP was confirmed by the Western blot analysis (FIG. 2B, lanes 2 and 3). No binding of CRP to K−/R− phage or a mock column was detected. […] The presence of multiple CRP molecules on surface of K+/R+ phage could provide steric protection against C-mediated inactivation. The role of CRP in protecting K+/R+ phage against C is consistent with the lack of protection for K+/R+ phage in human serum which normally contains little CRP.

[1] = Phage survival in rat serum in vitro (plaque forming assay); format: in vitro ADME; settings: protein eluted from Lysine-Sepharose by ε-ACA; data not shown
Protocol: Serum preparation. Rat serum was prepared by clotting blood on ice.

Row | Molecule | IC50 (CRP; K+19/16 clone) [µM] | IC50 (CRP; R+19/14 clone) [µM] | protective effect on phage [1]
1 | C[N+](C)(C)CCOP(=O)(O)O [PC, phosphorylcholine] | ~50 | ~50 | –
2 | B1 | – | – | no protective effect
